# Experimental data: publication PMC8694812 (RSC Advances, 2021)
# Experiments:
# [1] = ZnPc standard, cited from earlier work
# A549 cells = assay: MTT cell viability of A549 cells, dark and 660 nm LED irradiation; format: cell-based, human; conditions: 24 hours, 660 nm 30 min
# [2] = DMSO, ZnPc standard; cited from earlier work
# [3] = ZnPc standard, cited from earlier work; remark: listed apart in the source
# BEAS-2B cells = assay: MTT cell viability of BEAS-2B cells, dark and 660 nm LED irradiation; format: cell-based, human; conditions: Eu bis up to 50 μM, Lu bis above 2.5 μM, ZnPc 0.25 μM or above
structure (smiles),measurement,setting,value
"[Zn+2].c1ccc2c(c1)-c1nc-2nc2[n-]c(nc3nc([n-]c4nc(n1)-c1ccccc1-4)-c1ccccc1-3)c1ccccc21 [ZnPc, unsubstituted zinc(II)phthalocyanine]",Indirect ΦΔ in DMSO,[1]; fraction,0.670 (ref. [65])
same,ΦΔ (%) Indirect in DMSO,"[1]; singlet oxygen quantum yield, DMSO",67%
same,effect of light irradiation on viability/toxicity,A549 cells,high toxicity in the sub-μM range
same,ΦF (fluorescence quantum yield),[2],0.180 (ref. [64])
same,Direct ΦΔ in THF,[3]; fraction,0.530 (ref. [66])
same,ΦΔ (%) Direct in THF,"[3]; singlet oxygen quantum yield, THF",53%
same,effect of light irradiation on viability,BEAS-2B cells,reduced the viability
